One assay addresses T1, human CRTH2 (Homo sapiens, UniProt Q9Y5Y4).
T1 construct: expressed in transfected cells; host or cells: L1.2 cells (pEAK expression vector, puromycin selection)
T1 sequence (Q9Y5Y4 1-395): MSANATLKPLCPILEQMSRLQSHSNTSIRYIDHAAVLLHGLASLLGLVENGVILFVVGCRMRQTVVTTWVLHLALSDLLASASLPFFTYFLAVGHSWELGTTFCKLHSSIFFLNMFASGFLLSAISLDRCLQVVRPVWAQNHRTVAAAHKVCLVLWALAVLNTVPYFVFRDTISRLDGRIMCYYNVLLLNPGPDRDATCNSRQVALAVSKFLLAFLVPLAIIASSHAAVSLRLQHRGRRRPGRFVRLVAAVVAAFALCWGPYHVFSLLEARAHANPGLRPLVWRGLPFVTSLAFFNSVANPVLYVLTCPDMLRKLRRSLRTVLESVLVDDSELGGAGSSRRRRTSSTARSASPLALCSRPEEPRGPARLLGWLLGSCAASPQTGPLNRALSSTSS
In words: Measurement of Ca2+ mobilization in the human CRTH2-transfected L1.2 cell line. It is filed as cell-based. As to conditions: PGD2-induced Ca2+ mobilization, human CRTH2-transfected L1.2 cells; compounds as yielded by solid phase synthesis, purity about 40 to 90%; read-out: Activity class (IC50). From the text: [Preparation of Human CRTH2-Transfected L1. 2 Cell Line]
Human CRTH2 cDNA was amplified from human eosinophil cDNA with gene specific primers containing restriction sites for cloning into pEAK vector (Edge Bio Systems). The human CRTH2 cDNA was cloned into the mammalian expression vector pEAK. This expression plasmid ([…]) was transfected into L1. 2 cells, at a cell density of 1×10^7 cells/[…], by using electroporation apparatus (Gene Pulser II, BioRad) at 250V/[…]. One day after the transfection, puromycin (1 ug/mi, Sigma) was added into the cell culture plates. Two weeks after the transfection, grown cells were picked up for further growth.
[Measurement of Ca^2+ Mobilization in the Human CRTH2-Transfected L1. 2 Cell Line]
Ca^2+ loading buffer was prepared by mixing […] of Fluo-3AM (2 mM in DMSO, final 1 uM, Molecular Probes) and 10 µl of pluronic F-127 (Molecular Probes) and diluting the resulting mixture in 10 ml of Ca^2+ assay buffer (20 mM HEPES pH 7.6, 0.1% BSA, 1 mM probenecid, Hanks' solution). The CRTH2 transfected cells which were prepared in Example 1 were washed with PBS, resuspended in Ca2+ loading buffer at […] cells/ml, and incubated for 60 min at room temperature. After incubation, cells were washed and resuspended in Ca^2+ assay buffer, then dispensed into transparent-bottom 96-well plates (# 3631, Costar) at 2×10^5 cells/well. Cells were incubated with various concentrations of test compound for 5 minutes at room temperature. The emitted […] fluorescence was measured on FDSS6000, a Ca^2+-measurement apparatus (Hamamatsu Photonics, Hamamatsu, Japan).
The data corresponds to the compounds as yielded by solid phase synthesis and thus to levels of purity of about 40 to 90%. For practical reasons, the compounds are grouped in four classes of activity as follows: IC50=A (< or =) 10 nM<B (< or =) 100 nM<C (< or =) 500 nM<D. The compounds of the present invention also show excellent selectivity, and potent activity in Assays 2,3 and 4 described above.

For the next assay, the target named is T2, CRTH2 (GPR44) (Mus musculus, UniProt Q9Z2J6).
T2 construct: host or cells: skin of wild-type mice, in vivo
T2 sequence (Q9Z2J6 1-382): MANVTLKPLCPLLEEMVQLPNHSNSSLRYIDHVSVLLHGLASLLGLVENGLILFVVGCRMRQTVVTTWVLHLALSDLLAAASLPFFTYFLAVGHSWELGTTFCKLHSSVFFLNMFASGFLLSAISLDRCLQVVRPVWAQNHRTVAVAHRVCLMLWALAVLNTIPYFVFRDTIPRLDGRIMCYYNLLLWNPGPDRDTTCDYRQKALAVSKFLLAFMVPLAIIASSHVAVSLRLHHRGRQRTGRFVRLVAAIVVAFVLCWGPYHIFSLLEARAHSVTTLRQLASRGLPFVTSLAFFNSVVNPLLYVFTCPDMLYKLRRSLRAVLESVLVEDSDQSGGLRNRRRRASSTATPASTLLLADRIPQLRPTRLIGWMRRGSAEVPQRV
The settings on record: topical to skin, cited from earlier work.

Assay [1] concerns explanted human hair follicles. As to conditions: cited from earlier work.

Where two headings read alike, the source gives them in different places.

What is called IC50 is the midpoint of a concentration-inhibition curve.

Take `CN(C)c1nc(Cc2ccc(NC(=O)c3ccc4ccccc4c3)cc2)ncc1CC(=O)O` [Example 10]: the IC50 on human CRTH2 is less than 10 nM.
On the same count and under the same terms, in the case of `CN(C)c1nc(Cc2ccc(NC(=O)c3ccc4ccccc4c3)cc2)nc(Cl)c1Cc1nnn[nH]1` [Example 21] it was less than 10 nM; in that of `CN(C)c1nc(Cc2ccc(NC(=O)c3ccc4ccccc4c3)cc2)nc(Cl)c1CC(N)=O` [Example 22], 10 to 100 nM; in that of `CN(C)c1nc(Cc2ccc(NC(=O)c3ccc(C(F)(F)F)cc3)cc2)nc(N(C)C)c1CC(=O)O` [Example 14], less than 10 nM.
For the molecule `CN(C)c1nc(Cc2ccc(NC(=O)c3ccc4ccccc4c3)cc2)nc(Cl)c1CC(=O)O` [Example 1], the IC50 on human CRTH2 was less than 10 nM.
As for `O=C(O)Cc1c(Cl)nc(Cc2ccc(NC(=O)c3ccc4ccccc4c3)cc2)nc1Cl` [Example 20], the IC50 on human CRTH2 is less than 10 nM.
With `CCCCC[C@H](O)/C=C/[C@H]1C(=O)C[C@H](O)[C@@H]1C/C=C\CCCC(=O)O` [PGD2, prostaglandin D2], the values for the hair growth result (at CRTH2 (GPR44) (CRTH2 (GPR44) knockout mice); on CRTH2 (GPR44) (wild-type mice); in assay [1]) were “not”, “inhibited hair growth” and “inhibited hair growth”, respectively.

The values above are taken from patent US20140148470A1, “PYRIMIDINE COMPOUNDS FOR TREATING HAIRLOSS” (Boehringer Ingelheim International GmbH, priority 2012, published 2014).
